According to patent US4705900A, “Insecticidal alkenes” (Imperial Chemical Industries PLC, priority 1985, dated 1987):

Assays:
[1] = tested on: Musca domestica; assay: mortality of houseflies (MD), contact test; type: in vivo, Musca domestica (houseflies - adults); details: cotton wool/sugar, 1 day
Protocol: (§1) The activity of the Product was determined using a variety of insect pests. The Product was used in the form of liquid preparations containing 500 or 100 parts per million (ppm) by weight of the Product. The preparations were made by dissolving the Product in acetone and diluting the solutions with water containing 0.01% by weight of a wetting agent sold under the trade name "LISSAPOL" NX until the liquid preparations contained the required concentration of the Product. "Lissapol" is a Registered Trade Mark.
(§2) The test procedure adopted with regard to each pest was basically the same and comprised supporting a number of the pests on a medium which was usually a host plant or a foodstuff on which the pests feed, and treating either or both the pests and the medium with the preparations. The mortality of the pests was then assessed at periods usually varying from one to three days after the treatment.
(§3) The results of the tests are given in Table IV for each of the Products, at the rate in parts per million given in the second column as a grading of mortality designated as A, B or C wherein A indicates 80-100% mortality or knockdown, B indicates 50-79% mortality or knockdown and C indicates less than 50% mortality or knockdown.
(§4) In Table IV the pest organism used is designated by a letter code and the pests species, the support medium or food, and the type and duration of test is given in Table III.

[2] = tested on: Musca domestica; assay: knockdown of houseflies (MD/KD); type: in vivo, Musca domestica (houseflies - adults); details: cotton wool/sugar, 4 hours
Protocol: as §1, §2
In case of the species Musca domestica (housefly), additional tests to determine the knockdown effect of the compounds were performed.
as §3, §4

[3] = tested on: Chilo partellurs; assay: mortality of stem borers (CP), residual test; type: in vivo, Chilo partellurs (Stem borers); details: oil seed rape leaf, 3 days
Protocol: as §1, §2, §3, §4

[4] = tested on: Diabrotica balteata; assay: mortality of rootworm larvae (DB), residual test; type: in vivo, Diabrotica balteata (rootworm larvae); details: filter paper/maize seed, 3 days; for mortality at 500 ppm / grading of mortality, DB: 500 ppm; for grading of mortality, DB: 4320 min
Protocol: as §1, §2, §3, §4

[5] = tested on: Myzus persicae; assay: mortality of aphids (MP), contact test; type: in vivo, Myzus persicae (aphids); details: leaf, 2 days; for mortality at 500 ppm / grading of mortality, MP: 500 ppm; for grading of mortality, MP: 2880 min
Protocol: as §1, §2, §3, §4

[6] = tested on: Tetranychus urticae; assay: mortality of red spider mites (TU), contact test; type: in vivo, Tetranychus urticae (red spider mites - adult); details: French bean leaf, 3 days
Protocol: as §1, §2, §3, §4
(red spider mites - adult)

[7] = tested on: Heliothis viriscens; assay: whole plant or invertebrate; type: in vivo, Heliothis viriscens (tobacco budworm); details: in Gossypium hirsutum, 72 h, read-out: grading of mortality, HV
Protocol: as §1, §2, §3, §4

[8] = tested on: Blattella germanica; assay: mortality of cockroach nymphs (BG), residual test; type: in vivo, Blattella germanica (cockroach nymphs); details: plastic pot, 3 days
Protocol: as §1, §2, §3, §4

[9] = tested on: Nilaparvata lugens; assay: mortality of green leaf hopper (NL), contact test; type: in vivo, Nilaparvata lugens (brown planthopper); details: cabbage leaf, 6 days; for mortality at 500 ppm / grading of mortality, NL: 500 ppm; for grading of mortality, NL: 8640 min
Protocol: as §1, §2, §3, §4

[10] = Musca domestica, 24 h, 500 ppm, read-out: grading of mortality, MD
[11] = Musca domestica, 500 ppm, read-out: grading of knockdown, MD/KD
[12] = Chilo, 72 h, 500 ppm, read-out: grading of mortality, CP
[13] = Diabrotica balteata, in Zea mays, 72 h, read-out: grading of mortality, DB
[14] = Myzus persicae, 48 h, read-out: grading of mortality, MP
[15] = Tetranychus urticae, 72 h, 500 ppm, read-out: grading of mortality, TU
[16] = Blattella germanica, 72 h, 500 ppm, read-out: grading of mortality, BG
[17] = Nilaparvata lugens, in Brassica oleracea, 144 h, read-out: grading of mortality, NL

| SMILES | mortality at 500 ppm [1, 10] [%] | pest or weed control at 500 ppm [2, 11] [%] | mortality at 500 ppm [3, 12] [%] | mortality at 500 ppm [4, 13] [%] | mortality at 500 ppm [5, 14] [%] | mortality at 500 ppm [6, 15] [%] | mortality at 500 ppm [7] [%] | mortality at 500 ppm [8, 16] [%] | mortality at 500 ppm [9, 17] [%] | further results |
| --- | --- | --- | --- | --- | --- | --- | --- | --- | --- | --- |
| CC(C)(/C=C/c1ccc(C(F)(F)F)cc1)COCc1cccc(Oc2ccccc2)c1 [Compound 12, 3,3-dimethyl-1-(4-trifluoromethylphenyl)-4-(3-phenoxybenzyloxy)but-1-ene] | < 50 | < 50 | 80 to 100 | < 50 | 50 to 79 | < 50 | < 50 | 50 to 79 | 80 to 100 | – |
| CC(C)(C=Cc1ccccc1)COCc1ccc(F)c(Oc2ccccc2)c1 [Compound 9, 3,3-Dimethyl-1-phenyl-4-(4-fluoro-3-phenoxybenzyloxy)but-1-ene] | 80 to 100 | 80 to 100 | 80 to 100 | 80 to 100 | 80 to 100 | < 50 | 80 to 100 | < 50 | 80 to 100 | – |
| CC(C)(C=Cc1ccccc1F)COCc1cccc(Oc2ccccc2)c1 [Compound 16, 3,3-Dimethyl-1-(2-fluorophenyl)-4-(3-phenoxybenzyloxy)but-1-ene] | < 50 | < 50 | < 50 | < 50 | < 50 | < 50 | < 50 | < 50 | < 50 | – |
| CC(C)(C=Cc1ccc(Cl)cc1)COCc1cccc(Oc2ccccc2)c1 [Compound 13, 3,3-Dimethyl-1-(4-chlorophenyl)-4-(3-phenoxybenzyloxy)but-1-ene] | – | – | – | – | – | – | – | – | – | grading of mortality, MD ([1]; 500 ppm): B (B indicates 50-79% mortality or knockdown); grading of knockdown, MD/KD ([2]; 500 ppm): A (A indicates 80-100% mortality or knockdown); grading of mortality, CP ([3]; 500 ppm): A (A indicates 80-100% mortality or knockdown); grading of mortality, DB [4]: A (A indicates 80-100% mortality or knockdown); grading of mortality, MP [5]: A (A indicates 80-100% mortality or knockdown); grading of mortality, TU ([6]; 500 ppm): B (B indicates 50-79% mortality or knockdown); grading of mortality, BG ([8]; 500 ppm): C (C indicates less than 50% mortality or knockdown); grading of mortality, NL [9]: A (A indicates 80-100% mortality or knockdown) |
| CC(C)(C=Cc1ccc(Cl)cc1)COCc1cccc(Oc2ccccc2)c1 [Compound 1, 3,3-Dimethyl-1-(4-chlorophenyl)-4-(3-phenoxybenzyloxy)but-1-ene] | 50 to 79 | 80 to 100 | 80 to 100 | – | – | 50 to 79 | 80 to 100 | < 50 | – | grading of mortality, DB [4]: C (C indicates less than 50% mortality or knockdown); grading of mortality, MP [5]: C (C indicates less than 50% mortality or knockdown); grading of mortality, NL [9]: B (B indicates 50-79% mortality or knockdown) |
| CC(C)(CCc1ccc(Cl)cc1)COCc1cccc(Oc2ccccc2)c1 [Compound 34, 3,3-dimethyl-1-(4-chlorophenyl)-4-(3-phenoxybenzyloxy)butane] | < 50 | < 50 | 80 to 100 | < 50 | < 50 | 50 to 79 | 80 to 100 | < 50 | < 50 | – |
| Fc1ccc(/C=C/C2(COCc3cccc(Oc4ccccc4)c3)CC2)cc1 [Compound 19, 1-[2-(4-fluorophenyl)ethen-1-yl]-1-(3-phenoxybenzyloxymethyl)cyclopropane] | – | – | – | – | – | – | – | – | – | mortality at 100 ppm ([1]; Musca domestica, 24 h, 100 ppm, read-out: grading of mortality, MD): < 50%; pest or weed control at 100 ppm ([2]; Musca domestica, 100 ppm, read-out: grading of knockdown, MD/KD): < 50%; mortality at 100 ppm ([3]; Chilo, 72 h, 100 ppm, read-out: grading of mortality, CP): < 50%; mortality at 100 ppm ([4]; Diabrotica balteata, in Zea mays, 72 h, 100 ppm, read-out: grading of mortality, DB): < 50%; mortality at 100 ppm ([5]; Myzus persicae, 48 h, 100 ppm, read-out: grading of mortality, MP): < 50%; mortality at 100 ppm ([6]; Tetranychus urticae, 72 h, 100 ppm, read-out: grading of mortality, TU): < 50%; mortality at 100 ppm [7]: 80 to 100%; mortality at 100 ppm ([8]; Blattella germanica, 72 h, 100 ppm, read-out: grading of mortality, BG): < 50%; mortality at 100 ppm ([9]; Nilaparvata lugens, in Brassica oleracea, 144 h, 100 ppm, read-out: grading of mortality, NL): < 50% |
| CC(C)(C=Cc1ccc(F)cc1)COCc1cccc(Oc2ccccc2)c1 [Compound 11, 3,3-Dimethyl-1-(4-fluorophenyl)-4-(3-phenoxybenzyloxy)but-1-ene] | 50 to 79 | 80 to 100 | 80 to 100 | 50 to 79 | < 50 | < 50 | 80 to 100 | < 50 | 80 to 100 | – |
| CCOc1ccc(/C=C/C(C)(C)COCc2cccc(Oc3ccccc3)c2)cc1 [Compound 4, 3,3-Dimethyl-1-(4-ethoxyphenyl)-4-(3-phenoxybenzyloxy)but-1-ene] | < 50 | < 50 | < 50 | < 50 | < 50 | < 50 | < 50 | < 50 | < 50 | – |
| CC(C)(/C=C/c1ccc(F)cc1)COCc1ccc(F)c(Oc2ccccc2)c1 [Compound 6, 3,3-dimethyl-1-(4-fluorophenyl)-4-(4-fluoro-3-phenoxybenzyloxy)but-1-ene] | 80 to 100 | 80 to 100 | 80 to 100 | 80 to 100 | 80 to 100 | 50 to 79 | 80 to 100 | 80 to 100 | 80 to 100 | – |
| CC(C)(C=Cc1cccc(F)c1)COCc1cccc(Oc2ccccc2)c1 [Compound 17, 3,3-Dimethyl-1-(3-fluorophenyl)-4-(3-phenoxybenzyloxy)but-1-ene] | < 50 | < 50 | 80 to 100 | < 50 | < 50 | < 50 | 80 to 100 | < 50 | < 50 | – |
| Cc1ccc(C=CC(C)(C)COCc2cccc(Oc3ccccc3)c2)cc1 [Compound 14, 3,3-Dimethyl-1-(4-methylphenyl)-4-(3-phenoxybenzyloxy)but-1-ene] | < 50 | < 50 | 80 to 100 | 50 to 79 | < 50 | < 50 | 80 to 100 | < 50 | 50 to 79 | – |
| CC(C)(C=Cc1cc(Cl)cc(Cl)c1)COCc1cccc(Oc2ccccc2)c1 [Compound 15, 3,3-Dimethyl-1-(3,5-dichlorophenyl)-4-(3-phenoxybenzyloxy)but-1-ene] | < 50 | < 50 | 80 to 100 | < 50 | < 50 | < 50 | < 50 | < 50 | < 50 | – |
| CCC(C)(/C=C/c1ccc(Cl)cc1)COCc1cccc(Oc2ccccc2)c1 (stereo not shown) [Compound 25, 3-Ethyl-3-methyl-1-(4-chlorophenyl)-4-(3-phenoxybenzyloxy)but-1-ene] | 50 to 79 | < 50 | – | < 50 | 50 to 79 | < 50 | 80 to 100 | 80 to 100 | 50 to 79 | – |
